Data as given in patent US20220347247A1, “USE OF CANNABINOIDS IN THE TREATMENT OF INFLAMMATION AND AGING IN THE SKIN” (priority 2021, published 2022).
“Also recorded” adds a separate entry of the source. Read-outs that look alike come from different tables or passages of the source.

Key:
PGE2 = PGE2 release by PMA-stimulated NHEK (ELISA); assay type: cell-based, human; conditions: for effect on PGE2 release, in words / % of relative inhibition of PGE2 release / PGE2 release, % of the control: PMA-stimulated keratinocytes; for effect on PGE2 release, in words: overall; for % of relative inhibition of PGE2 release: concentration not given; for PGE2 release, % of the control: highest concentration tested
Description: (§1) Example 1: Effects of six compounds on normal human epidermal keratinocytes The effects on normal human epidermal keratinocytes (NHEK) were measured by assessing IL-8 and PGE2 release by PMA-stimulated NHEK using specific ELISA kits.
(§2) Keratinocytes were seeded in 96-well plates and cultured for 24 hours in culture medium. […] After pre-incubation, the medium was removed and replaced by assay medium 1 containing or not (stimulated control) the compounds or the reference compound and containing the inducer (PMA tested at 0.5 μg/ml). The cells were then incubated for 24 hours. In parallel, a non-stimulated control condition was performed.
(§3) All experimental conditions were performed in n=3. At the end of incubation, the culture supernatants were collected for IL-8 and PGE2 quantifications.
(§4) IL-8 and PGE2 released in the culture supernatants were measured using specific ELISA kits according to the supplier's instructions.

IL-8 = assay: cells; assay type: cell-based, human; conditions: for effect on IL-8 release, in words: PMA-stimulated keratinocytes; for % Relative inhibition of IL-8 release: PMA 0.5 μg/ml
Description: as §1, §2, §3, §4

[1] = Homo sapiens, NHEK, 24 h, read-out: % Relative inhibition of PGE2 release
[2] = Homo sapiens, NHEK, 24 h, read-out: % Relative inhibition of IL-8 release
[3] = 1 μM, NHEK, PMA 0.5 μg/ml, 24 h

O=C1O[C@H]([C@@H](O)CO)C(O)=C1O [L-Ascorbic acid, reference compound]
inhibition at 50 µg/mL (PGE2; [1]): > 148% | inhibition at 100 µg/mL (PGE2; [1]): > 160% | inhibition at 200 µg/mL (PGE2; [1]): 127% | effect on PGE2 release, in words (PGE2): overall the same effect at all tested concentrations; also recorded: significantly limited PGE2 release | % of relative inhibition of PGE2 release (PGE2): ~145% | inhibition at 50 µg/mL (IL-8; [2]): -10% | inhibition at 100 µg/mL (IL-8; [2]): 11% | inhibition at 200 µg/mL (IL-8; [2]): -15%

CCCCCc1cc(O)c(C/C=C(\C)CCC=C(C)C)c(O)c1 [CBG, cannabigerol]
inhibition at 0.3 µM (PGE2; [1]): 86% | inhibition at 1 µM (PGE2; [1]): > 169% | inhibition at 3 µM (PGE2; [1]): > 159% | effect on PGE2 release, in words (PGE2): significant at all tested concentrations; also recorded: significantly inhibited | % of relative inhibition of PGE2 release (PGE2): about 160% | effect on IL-8 release, in words (IL-8; 3 μM): strongly inhibited | inhibition at 0.3 µM (IL-8; [2]): 7% | inhibition at 1 µM (IL-8; [2]): 20% | inhibition at 3 µM (IL-8; [2]): 60% | effect on IL-8 release, in words (IL-8; overall): significantly inhibited

CCCc1cc(O)c(C/C=C(\C)CCC=C(C)C)c(O)c1C(=O)O [CBGVA, cannabigerovarinic acid]
% Relative inhibition of PGE2 release (PGE2; 0.1 μM, NHEK, PMA 0.5 μg/ml, 24 h): 19% | % Relative inhibition of PGE2 release (PGE2; 0.3 μM, NHEK, PMA 0.5 μg/ml, 24 h): 65% | % Relative inhibition of PGE2 release (PGE2; [3]): >162% | effect on PGE2 release, in words (PGE2): significant effect only when tested at the highest concentration; also recorded: inhibited PGE2 release | % of relative inhibition of PGE2 release (PGE2): about 160% | % Relative inhibition of IL-8 release (IL-8; 0.1 μM, NHEK, 24 h): 2% | % Relative inhibition of IL-8 release (IL-8; 0.3 μM, NHEK, 24 h): 11% | % Relative inhibition of IL-8 release (IL-8; 1 μM, NHEK, 24 h): 9%

C=C(C)[C@@H]1CCC(C)=C[C@H]1c1c(O)cc(CCCCC)cc1O [CBD, cannabidiol]
inhibition at 0.1 µM (PGE2; Homo sapiens, 0.1 μM, NHEK, PMA 0.5 μg/ml, 24 h, read-out: % Relative inhibition of PGE2 release): 0% | inhibition at 0.3 µM (PGE2; Homo sapiens, 0.3 μM, NHEK, PMA 0.5 μg/ml, 24 h, read-out: % Relative inhibition of PGE2 release): -59% | effect on PGE2 release, in words (PGE2): stimulate PGE2 expression | PGE2 release, % of the control (PGE2): 185 % of the control | effect on IL-8 release, in words (IL-8; 0.3 μM): overstimulated IL-8 release | inhibition at 0.1 µM (IL-8; [2]): 12% | inhibition at 0.3 µM (IL-8; [2]): -44% | inhibition at 1 µM (IL-8; [2]): 18%

CCCCCc1cc(O)c(C/C=C(\C)CCC=C(C)C)c(O)c1C(=O)O [CBGA, cannabigerolic acid]
inhibition at 0.03 µM (PGE2; [1]): -17% | inhibition at 0.1 µM (PGE2; [1]): -68% | effect on PGE2 release, in words (PGE2): stimulate PGE2 expression | PGE2 release, % of the control (PGE2): 182 % of the control | inhibition at 0.03 µM (IL-8; [2]): 0% | inhibition at 0.1 µM (IL-8; [2]): -7% | inhibition at 0.3 µM (IL-8; [2]): 9%

COc1ccc2c(c1)c(CC(=O)O)c(C)n2C(=O)c1ccc(Cl)cc1 [Indomethacin, indomethacin, reference compound]
% Relative inhibition of PGE2 release (PGE2; [3]): >169% | inhibition at 1 µM (PGE2; [1]): > 169%

C=C(C)[C@@H]1CCC(C)=C[C@H]1c1c(O)cc(CCCCC)c(C(=O)O)c1O [CBDA, cannabidiolic acid]
inhibition at 0.03 µM (PGE2; [1]): -24% | inhibition at 0.1 µM (PGE2; [1]): -50% | inhibition at 0.3 µM (PGE2; [1]): -20% | effect on PGE2 release, in words (PGE2): did not modulate PGE2 release | inhibition at 0.03 µM (IL-8; [2]): 11% | inhibition at 0.1 µM (IL-8; [2]): 17% | inhibition at 0.3 µM (IL-8; [2]): 0%
